System: 3T3-L1 cells
Assay: PEGn-TAT variants: inhibition of differentiation of 3T3-L1 cells and of fatty acid synthesis
Format: cell-based
Experimental: 3T3-L1 cells were cultured in DMEM (high glucose, pyruvate, GIBCO CAT #11995) supplemented with 10% calf serum and 1% penicillin-streptomycin (P/S). Cells were seeded in a 6-well culture plate, and when the cells reached a confluency of 60 to 70%, MDI, a differentiation initiation medium, was added at a 1× concentration. At this time, the cells were treated with each of TAT-38, X-FAT8, and PEGn-TAT at a concentration of 1 to 10 μM. After 2 days, MDI was replaced with insulin, and each of AT-38, X-FAT8, and PEGn-TAT was added to fresh medium every day during culture. From day 4, culture was continued for 4 days in maintenance medium. Thereafter, the cell status was checked and recorded every day. When necessary, the cells were fixed and the amount of fatty acids was analyzed by Oil-O red staining.

Substance: TACTNCYCAKCCFHCQVC-(Peg)7-RAKRRQRRR [PEG7-TAT]
- differentiation inhibitory ability and intracellular lipid accumulation, 3T3-L1 cells (4 days (FIG. 12A) and 6 days (FIG. 12B) after the initiation of differentiation): very high
- differentiation inhibitory ability and intracellular lipid accumulation, 3T3-L1 cells (4 days after the initiation of differentiation, FIG. 11A): very high
- differentiation inhibitory ability, 3T3-L1 cells (6 days after the induction of differentiation, FIG. 11B): still significant
- differentiation and intracellular lipid accumulation, 3T3-L1 cells, Oil-O-Red staining (8 days after the initiation of differentiation, FIG. 13): strong inhibition of differentiation and inhibition of intracellular lipid accumulation
